Test results taken from US6399356B1, “Process and agent for sanitation of contaminations caused by viruses” (priority 1998, dated 2002).

How the values were obtained:
reo-3-virus = assay: Sanitization of a DEAE-Sephadex chromatography column contaminated with virus
Method: 1 g of DEAE-Sephadex A-50 (pre-swollen) was added as a slurry in 20 ml of PBS (pH 7.2) to 500 ml of a reo-3-virus-containing aqueous solution (cell culture supernatant with 5% FCS) having a virus titer (CCID50) of 5.5 log10. After stirring for 30 min at approximately 20° C., all the material was transferred to a chromatography column and, after sedimentation of the resin, the column was emptied. The resin was then washed with 150 ml of wash buffer (0.2 M NaCl, pH 6.0 by means of KH2PO4/NaOH) and finally eluted with elution buffer (2.0 M NaCl, pH 8.0 by means of KH2PO4/NaOH). For sanitization, the column was washed (in countercurrent) with 3 column volumes of a wash buffer containing carvacrol solution (1:2000) and allowed to stand overnight at approximately 20° C. under this carvacrol solution. The column was then regenerated with wash buffer.

[1] = tested on: non-cytopathogenic pestivirus strain in MDBK cell culture; assay: Sanitization of a cell culture: titration of cytopathogenic BVDV strain on treated MDBK indicator cells; assay type: cell-based
Method: The infection of the cell culture can be followed, inter alia, by the (fetal) calf serum necessary for cell culture.
An MDBK cell culture which is infected with a non-cytopathogenic pestivirus strain is passaged as is customary (splitting rate 1:5; Eagles Minimal Essential Medium containing 5% FCS) and two cell culture flasks are prepared. One cell culture flask remains untreated, the second cell culture flask is treated with thymol (1:50,000). Both cell culture flasks are passaged weekly, the treatment of the cell culture being carried out for 3 passages. After one passage without treatment, cells from the respective cell culture flasks are inoculated into microtiter plates and a titration (end point dilution method) of a cytopathogenic BVDV strain (Denmark) is carried out on the respective indicator cells. The cytopathogenic effect is evaluated as an indication of virus replication and the virus titer is calculated (Spaerman-Kärber method; Table 2).

[2] = carvacrol solution (1:2000) after about 16 hours' incubation at approximately 20° C. (12 ml)
[3] = wash buffer after sanitation with carvacrol, 2nd column volume (12 ml)

Structure (SMILES)	Virus load (Titer × volume) (reo-3-virus; [2])	Virus titer (reo-3-virus; [2])	Virus titer (reo-3-virus; carvacrol solution (1:2000) in wash buffer, 1st column volume (12 ml), titer determined immediately after obtaining the sample, starting material 5.5)	Virus load (Titer × volume) (reo-3-virus; carvacrol solution (1:2000), 1st column volume (12 ml), determined immediately after obtaining the sample, starting material 8.2)	Inactivation of reo-3-virus on the column (reo-3-virus; sanitization of DEAE-Sephadex column with carvacrol solution (1:2000) overnight)	Virus load (Titer × volume) (reo-3-virus; [3])	Virus titer (reo-3-virus; [3])	Virus titer of cytopathogenic BVDV strain (Denmark) on the indicator cells ([1]; MDBK cells infected with non-cytopathogenic pestivirus, 3 passages treated with thymol (1:50,000), then one passage without treatment, untreated 3.9, starting culture 4.3)	Inactivation of non-cytopathogenic pestivirus in MDBK cells ([1]; thymol (1:50,000), 3 passages)
Cc1ccc(C(C)C)cc1O [Carvacrol solution, carvacrol]	≦2.6 [log10]	≦1.5 CCID50/ml[log10]	4.2 CCID50/ml[log10]	5.3 [log10]	complete inactivation of reo-3-virus below the detection limit	≦2.6 [log10]	≦1.5 CCID50/ml[log10]		
Cc1ccc(C(C)C)c(O)c1 [thymol]								7.6 (CCID50ml) [log10]	the non-cytopathogenic pestivirus is inactivated
